Like-named read-outs stand apart in the source and are kept apart here.
Experiments:
[1] = tested on: Plasmodium falciparum D6 strain (chloroquine sensitive); assay: Antiplasmodial fluorescence-based SyBr Green assay, D6 strain; format: cell-based
Procedure: (§1) Parasite culture and drug susceptibility assays: Four different laboratory strains of P. falciparum were cultured in human erythrocytes by standard methods under a low oxygen atmosphere (5% O2, 5% CO2, 90% N2) in an environmental chamber (Trager, W., and J. Jensen. 1976. Human malaria parasites in continuous culture. Science 193:673-675). The culture medium was RPMI 1640, supplemented with 25 mM Hepes buffer, 25 mg/liter gentamicin sulfate, 45 mg/liter hypoxanthine, 10 mM glucose, 2 mM glutamine, and 0.5% Albumax II. The parasites were maintained in fresh human erythrocytes suspended at a 2% hematocrit in complete medium at 37° C. Stock cultures were sub-passaged every 3 to 4 days by transfer of infected red cells to a flask containing complete medium and uninfected erythrocytes.
(§2) In vitro antimalarial activity of the test compounds was assessed by a fluorescence-based method described previously by Smilkstein M., N. Sriwilaijaroen, J. X. Kelly, P. Wilairat, and M. Riscoe. 2004. Simple and inexpensive fluorescence-based technique for high-throughput antimalarial drug screening. Antimicrob Agents Chemother 48:1803-6. The experiments were set up in triplicate in 96 well plates with two-fold dilutions of each compound across the plate in a total volume of 100 μl and at a final red blood cell concentration of 2% (v/v). Stock solutions of each compound were prepared by dissolving in DMSO at 10 mM. […] In every case, an additional determination was performed to ensure bracketing of the IC50 value by at least an order of magnitude. Automated pipeting and dilution was carried out by a programmable Precision 2000 robotic station (Bio-Tek, Winooski, Vt.). An initial parasitemia of 0.2% was attained by addition of normal uninfected red cells to a stock culture of asynchronous parasite infected red cells (PRBC). The plates were incubated for 72 hrs at 37° C. in an atmosphere of 5% CO2, 5% O2, and 90% N2. After this period the SyBr Green I dye-detergent mixture (100 μl) was added and the plates were incubated at room temperature for an hour in the dark and then placed in a 96-well fluorescence plate reader (Gemini-EM, […]) for analysis with excitation and emission wavelength bands centered at 497 and 520 nm, respectively.

[2] = tested on: Plasmodium falciparum Dd2 strain (multidrug-resistant); assay: Antiplasmodial fluorescence-based SyBr Green assay, Dd2 strain; format: cell-based; conditions: read-out: Antiplasmodial IC50, Dd2 strain
Procedure: as §1, §2

[3] = tested on: Plasmodium falciparum 7G8 strain (multidrug-resistant); assay: Antiplasmodial fluorescence-based SyBr Green assay, 7G8 strain; format: cell-based; conditions: read-out: Antiplasmodial IC50, 7G8 strain
Procedure: as §1, §2

[4] = tested on: Plasmodium falciparum Tm90.C2B strain (multidrug-resistant); assay: Antiplasmodial fluorescence-based SyBr Green assay, Tm90.C2B strain; format: cell-based; conditions: read-out: Antiplasmodial IC50, Tm90.C2B strain
Procedure: as §1, §2

[5] = tested on: Plasmodium yoelii; assay: Modified Thompson test, suppression of patent infection in mice; format: in vivo; conditions: P. yoelii in CF1 mice; gavage daily for 3 days; smears on 4th day; pharmachins free base in miglyol 812, chloroquine in water
Procedure: Efficacy of compounds in vivo. […] This test monitors suppression of patent infection in female CF1 Swiss albino mice (≈20 gm). A test begins with the inoculation of Plasmodium yoelii parasitized erythrocytes (100,000 to 500,000; obtained from a donor animal) on the first day of the experiment (D0). After 24 hours, the standard agents or pharmachin compounds were administered by gavage at daily intervals for three successive days. Initially the test compounds were examined at 128 mg/kg/day, 64 mg/kg/day, 16 mg/kg/day and 4 mg/kg/day and including a vehicle-only control. […] The parasite burden in each blood sample was determined by direct microscopic analysis of methanol-fixed, Giemsa-stained blood smears. […] The ED50 value is the dosage of drug required to achieve a 50% reduction in parasitemia relative to the vehicle-only control; non-linear regression analysis was employed to generate ED50s from the accumulated data.
Mice were split into groups of 3 each and animals were dosed by gavage at the following dosages: 128 mg/kg; 64 mg/kg; 16 mg/kg; and 3 mg/kg. The drugs were administered daily for 3 days and blood smears were taken on the 4th day. […] ED50 values were calculated by graphical analysis of the dose-response effect.

[6] = tested on: P. berghei (ANKA/GFP); assay: Modified 4 day test in infected mice; format: in vivo
Procedure: Follow-up studies with Pharmachin 128 were preformed in mice infected with P. berghei (ANKA/GFP) using a modified 4 day test. Animals (CF1) were inoculated (iv) with 1 million infected red blood cells, obtained from donor animals, and then randomly sorted into groups of 5 mice each.
In this set of experiments Pharmachin 128 was administered daily by gavage as the citrate salt dissolved in water (100 μl) for each of 4 days. Dosing was set at 64, 16, 4, 2, and 1 mg/kg/day, respectively, and including a no drug control. Blood films were prepared on the 5th day (i.e., the day after the final drug dose), fixed in methanol, stained with Giemsa, and viewed microscopically to assess parasitemia.

[7] = tested on: P. falciparum strains (D6, Dd2, Tm90.C2B, 7G8); assay: Antiplasmodial SyBr Green assay, summary across strains; format: cell-based, Plasmodium falciparum; conditions: for IC50: Plasmodium falciparum
Procedure: as §1
as §2, with “An initial parasitemia of 0.2% was attained by addition of normal uninfected red cells to a stock culture of asynchronous parasite infected red cells (PRBC). The plates were incubated for 72 hrs at 37° C. in an atmosphere of 5% CO2, 5% O2, and 90% N2.” left out

[8] = Plasmodium falciparum, D6, 72 h; read-out: Antiplasmodial IC50, D6 strain
[9] = Plasmodium falciparum, multidrug-resistant Dd2 strain, 72 hrs, mean of at least two experiments in triplicate
[10] = Plasmodium falciparum, multidrug-resistant 7G8 strain, 72 hrs, mean of at least two experiments in triplicate
[11] = multidrug-resistant Tm90.C2B strain, 72 hrs, mean of at least two experiments in triplicate
[12] = 64 mg/kg/day, gavage, 4 days, citrate salt
[13] = P. berghei in CF1 mice, citrate salt in water by gavage daily for 4 days, parasitemia on 5th day

| Molecule | IC50 [1, 8] [nM] | IC50 [2, 9] [nM] | IC50 [3, 10] [nM] | IC50 [4, 11] [nM] | other results |
| --- | --- | --- | --- | --- | --- |
| Cc1cnc2cc(Cl)ccc2c1N1CCN(CCCN2CCN(c3c(C)cnc4cc(Cl)ccc34)CC2)CC1 [3-methyl-piperaquine] | 4.6 | 6.5 | 9.5 | – | – |
| O=C1C(O)=C([C@H]2CC[C@H](c3ccc(Cl)cc3)CC2)C(=O)c2ccccc21 [Atovaquone, reference compound] | 0.1 | 0.1 | – | 7700 | – |
| Cc1cnc2ccc(Cl)cc2c1NCCCNC(C)(C)C [Pharmachin 129, 6-Chloro-3-Methyl-4-(3-t-butylaminopropylamino)-Quinoline] | 94.8 | 127 | – | – | – |
| Cc1cnc2cc(Cl)ccc2c1NCCCNC(C)(C)C [Pharmachin 128, 7-Chloro-3-Methyl-4-(3-t-butylaminopropylamino)-quinoline] | 6.2 | 11.6 | 11.3 | 12 | ED50 (50% reduction in parasitemia) [5]: 2.5 mg/kg/day; Animals recrudesced 2 weeks after the last dose ([6]; 16 mg/kg/day group, gavage, 4 days, citrate salt): 2 of the 5; Bloodstream parasites on 5th day ([6]; 16 mg/kg/day, gavage, 4 days, citrate salt): completely cleared; Bloodstream parasites on 5th day [6, 12]: completely cleared; Parasitemia over full 30-day examination period (scored as cures) [6, 12]: remained aparasitemic; ED50 [6, 13]: 2.7 mg/kg/day; ED90 [6, 13]: 4.7 mg/kg/day; IC50 ([7]; range over D6, Dd2, Tm90.C2B, 7G8, read-out: IC50 values ranging, all 4 P. falciparum strains): 6.2 to 12 nM |
| 5.7-Difluoro-3-Methyl-4-(3-t-butylaminpropyl-amino)-Quinoline [Pharmachin 130] | – | – | – | – | IC50 ([1]; chloroquine sensitive D6 strain; 72 hrs; mean of at least two experiments in triplicate; read-out: Antiplasmodial IC50, D6 strain): 15 nM; IC50 ([2]; multidrug-resistant Dd2 strain, 72 hrs, mean of at least two experiments in triplicate): 21.9 nM; IC50 ([3]; multidrug-resistant 7G8 strain, 72 hrs, mean of at least two experiments in triplicate): 25.9 nM |
| CCN(CC)CCCC(C)Nc1c(C)cnc2cc(Cl)ccc12 (stereo not shown) [Sontochin, 3-methyl-chloroquine, reference compound] | 8.6 | 11.3 | – | 13.8 | IC50 ([7]; range over strains as worded in text, read-out: IC50 values ranging, drug resistant strains of P. falciparum): 8.6 to 13.8 nM |
| Clc1ccc2c(NCCCNC34CC5CC(CC(C5)C3)C4)ccnc2c1 [AQ-13-AD, 7-Chloro-(3-adamantylamino)-aminopropylquinoline] | 3.8 | 4.2 | – | 4.9 | – |
| C=C[C@H]1C[N@@]2CC[C@H]1C[C@H]2[C@H](O)c1ccnc2ccc(OC)cc12 [Quinine, reference compound] | 19 | 87 | 29.5 | 96 | – |
| CCN(CC)CCCC(C)Nc1ccnc2cc(Cl)ccc12 (stereo not shown) [Chloroquine, reference compound] | – | – | – | – | IC50 ([1]; Plasmodium falciparum, D6, 72 h, read-out: Antiplasmodial IC50, D6 strain): 11.2 nM; IC50 ([2]; Plasmodium falciparum, DD2, 72 h): 160 nM; IC50 ([4]; TM90, 72 h): 144 nM; IC50 ([3]; Plasmodium falciparum, 7G8, 72 h): 55 nM |
| CCN(CC)CCNc1c(C)cnc2cc(Cl)ccc12 [Pharmachin 127, 7-Chloro-3-Methyl-4-(3-(diethylamino)-ethylamino)-Quinoline] | 14.1 | 17.8 | – | 18.3 | – |
| CCN(CC)CCCNc1c(C)cnc2cc(Cl)ccc12 [Pharmachin 112, 7-Chloro-3-Methyl-4-(3-(diethylamino)-propylamino)-Quinoline] | 12.8 | 17.7 | – | 16.6 | ED50 (50% reduction in parasitemia) [5]: 6.5 mg/kg/day |
| CCN(CC)CCCNC1=CCNc2cc(Cl)ccc21 [AQ-13, reference compound] | 7.2 | 8.1 | 12 | – | Antiplasmodial activity against all tested drug resistant strains ([7]; in words): high level of antiplasmodial activity |

From US8481543B2, “Compounds for treating parasitic disease” (Oregon Health & Science University, priority 2008, dated 2013)
